Source: US20240090506A1, “SURFACE MODIFICATION TO REGULATE PLANT GROWTH” (BIND-X GMBH, priority 2020, published 2024)

System: Plantago lanceolate (ribwort plantain) and Poa annua (annual meadow grass)
Assay: Pot test with solid (powdered) alkali silicates or mixtures: weed coverage rate, degree of efficiency = weed penetration resistance (Example 2)
Assay type: in vivo
Conditions: in the dosage used in the mixtures
Experimental: The experiment was carried out in the laboratory in plant pots with a volume of 450 cm^3. The application area was 78.5 cm^2. The soil substrate was a sifted land soil. Humus (humic soil) was used as a nutrient source for the desired plant. […] On top of the humic soil, 250 g of sifted land soil was placed. Both soil substrates were free of weed growth prior to treatment. Both soils contained minimal residues of endemic weed seeds or inflowing seeds. These present seeds were not sufficient for efficient weed growth. […] For this purpose, the weeds were worked into the top soil layer in a depth of 2-4 mm. Different alkali silicate powders were used in this experiment, which are specified in detail below. Hardeners and/or performance modifiers were added, if applicable. The solid formulations were mixed and then applied homogeneously to the soil surface. […] The coverage rate was determined by manual visual assessment of the plant pots at the specified times, as described in example 1. […] From this in turn the degree of efficiency according to Abbott was calculated as follows: Degree of efficiency=[coverage rate control(day x)−coverage rate product(day x)]/coverage rate control(day x)*100 Furthermore, the quality of the formed layer was observed regularly with respect to crack formation. […]

In the case of `CC(=O)[O-].CC(=O)[O-].[Ca+2]` [calcium acetate], the “weed penetration resistance of the performance modifier alone” value is reported as “An effect is observed only at the beginning of the experiment”.
